Common to all, as to experiment: Kinase profile (33P ATP filter binding)
Holding throughout (assay type): biochemical

The target of one assay is BTK (Homo sapiens, UniProt Q06187). The method, then:
(§1) The compounds were diluted to the appropriate concentration. The compounds were added to a “mother plate” consisting of samples, controls, and blanks. These serve as the source for “daughter plates” which are stored at −20 °C until assay initiation. Protein Kinases: Enzyme/Substrate mixture was added to the compound, and the compounds were incubated for five minutes at room temperature (RT). ^33P ATP was added to the compounds to initiate the assay. Orthophosphoric acid was added to the compounds to halt the assay. Assay components were harvested onto P81 filter plates, filter plates were air-dried, scintillation fluid was added to plates, and counts were read on a Topcount NXT. A mean percentage activity was calculated.

For the next assay, the target named is HIPK2 (Homo sapiens, UniProt Q9H2X6). Conditions: read-out: Remaining protein kinase activity. As for the experimental part: as §1
Another assay has as its target JNK3 (Homo sapiens, UniProt P53779). As for the experimental part: as §1
The next assay has as its target MNK2 (Homo sapiens, UniProt Q9HBH9). As to conditions: read-out: Remaining protein kinase activity. As for the experimental part:
as §1

A further assay concerns the target PAK6 (Homo sapiens, UniProt Q9NQU5). As to conditions: read-out: Remaining protein kinase activity. As for the experimental part:
as §1

The target of the next assay is PKA (Homo sapiens, UniProt P17612). As to conditions: read-out: Remaining protein kinase activity. The method, then:
as §1

Another assay addresses T1, ULK1 (Homo sapiens, UniProt O75385).
T1 sequence (O75385 1-1050): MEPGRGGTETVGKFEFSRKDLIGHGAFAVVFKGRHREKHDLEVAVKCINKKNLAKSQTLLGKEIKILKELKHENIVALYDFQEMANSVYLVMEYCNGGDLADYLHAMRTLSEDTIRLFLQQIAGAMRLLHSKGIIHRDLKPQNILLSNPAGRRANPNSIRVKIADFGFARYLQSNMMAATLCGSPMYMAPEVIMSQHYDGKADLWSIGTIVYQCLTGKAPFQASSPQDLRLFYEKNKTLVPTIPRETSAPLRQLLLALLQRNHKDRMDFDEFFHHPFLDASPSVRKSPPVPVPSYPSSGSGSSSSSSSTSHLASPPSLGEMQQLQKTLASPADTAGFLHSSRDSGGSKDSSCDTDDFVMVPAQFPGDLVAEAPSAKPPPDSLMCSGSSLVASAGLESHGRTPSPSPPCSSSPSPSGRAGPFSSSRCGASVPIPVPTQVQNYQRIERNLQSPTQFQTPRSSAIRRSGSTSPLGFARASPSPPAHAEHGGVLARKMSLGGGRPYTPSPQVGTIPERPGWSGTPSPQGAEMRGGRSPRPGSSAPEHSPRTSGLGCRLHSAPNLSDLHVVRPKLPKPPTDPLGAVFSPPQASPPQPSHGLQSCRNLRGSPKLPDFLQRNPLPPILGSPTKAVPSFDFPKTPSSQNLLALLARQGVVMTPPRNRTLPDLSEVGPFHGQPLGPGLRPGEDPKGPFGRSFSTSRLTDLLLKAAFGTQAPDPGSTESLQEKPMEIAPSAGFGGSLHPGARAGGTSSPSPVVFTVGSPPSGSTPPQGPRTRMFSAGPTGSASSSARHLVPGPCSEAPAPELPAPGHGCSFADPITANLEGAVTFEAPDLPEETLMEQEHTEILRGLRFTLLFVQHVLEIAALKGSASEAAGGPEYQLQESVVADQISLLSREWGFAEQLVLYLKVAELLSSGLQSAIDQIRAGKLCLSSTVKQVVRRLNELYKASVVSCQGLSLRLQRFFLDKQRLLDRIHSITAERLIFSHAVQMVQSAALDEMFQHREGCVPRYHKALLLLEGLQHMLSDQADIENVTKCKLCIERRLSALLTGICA
As for the experimental part: as §1

A further assay concerns the target T2, ZAP70 (Homo sapiens, UniProt P43403).
T2 sequence (P43403 1-619): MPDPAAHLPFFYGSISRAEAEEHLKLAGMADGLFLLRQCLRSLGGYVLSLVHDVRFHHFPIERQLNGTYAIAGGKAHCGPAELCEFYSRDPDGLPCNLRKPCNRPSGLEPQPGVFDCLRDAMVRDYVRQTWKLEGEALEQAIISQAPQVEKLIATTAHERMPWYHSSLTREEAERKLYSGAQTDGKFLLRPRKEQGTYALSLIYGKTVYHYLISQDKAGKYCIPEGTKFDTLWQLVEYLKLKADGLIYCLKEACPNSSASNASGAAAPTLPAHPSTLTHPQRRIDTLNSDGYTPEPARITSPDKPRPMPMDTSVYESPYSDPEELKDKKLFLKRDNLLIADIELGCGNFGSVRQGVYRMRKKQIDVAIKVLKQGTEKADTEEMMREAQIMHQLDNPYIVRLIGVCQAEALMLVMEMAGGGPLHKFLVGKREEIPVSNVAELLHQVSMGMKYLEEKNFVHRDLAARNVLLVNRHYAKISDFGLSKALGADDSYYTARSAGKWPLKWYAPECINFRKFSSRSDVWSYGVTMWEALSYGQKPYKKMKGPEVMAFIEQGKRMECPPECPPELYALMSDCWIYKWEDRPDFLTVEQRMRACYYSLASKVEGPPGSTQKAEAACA
Conditions: read-out: Remaining protein kinase activity. The method, then:
as §1

A further assay concerns the target p38a MAPK (Homo sapiens, UniProt Q16539). The method, then: as §1

Read-outs that look alike come from different tables or passages of the source.

The remaining activity is the signal under treatment as a percentage of the control signal.

PAK6, sequence (Q9NQU5 whole entry): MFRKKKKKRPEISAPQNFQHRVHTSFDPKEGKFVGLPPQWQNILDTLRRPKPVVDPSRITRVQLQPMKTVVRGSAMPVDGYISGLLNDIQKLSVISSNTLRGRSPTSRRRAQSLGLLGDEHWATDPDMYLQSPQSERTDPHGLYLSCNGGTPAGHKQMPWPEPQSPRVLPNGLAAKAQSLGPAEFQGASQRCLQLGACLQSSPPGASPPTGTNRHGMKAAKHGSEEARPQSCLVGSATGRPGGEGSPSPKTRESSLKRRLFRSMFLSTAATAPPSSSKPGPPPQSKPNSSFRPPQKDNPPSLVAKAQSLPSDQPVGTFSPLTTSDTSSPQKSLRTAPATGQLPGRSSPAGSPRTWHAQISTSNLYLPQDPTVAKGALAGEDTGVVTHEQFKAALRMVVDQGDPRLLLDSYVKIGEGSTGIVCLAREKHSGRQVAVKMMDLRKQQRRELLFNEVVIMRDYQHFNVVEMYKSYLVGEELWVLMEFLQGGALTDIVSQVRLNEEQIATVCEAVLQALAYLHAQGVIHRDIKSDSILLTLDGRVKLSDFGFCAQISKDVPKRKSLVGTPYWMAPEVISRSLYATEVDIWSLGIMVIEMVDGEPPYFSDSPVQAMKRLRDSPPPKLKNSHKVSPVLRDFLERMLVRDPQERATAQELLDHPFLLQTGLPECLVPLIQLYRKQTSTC
HIPK2, sequence (Q9H2X6 whole entry): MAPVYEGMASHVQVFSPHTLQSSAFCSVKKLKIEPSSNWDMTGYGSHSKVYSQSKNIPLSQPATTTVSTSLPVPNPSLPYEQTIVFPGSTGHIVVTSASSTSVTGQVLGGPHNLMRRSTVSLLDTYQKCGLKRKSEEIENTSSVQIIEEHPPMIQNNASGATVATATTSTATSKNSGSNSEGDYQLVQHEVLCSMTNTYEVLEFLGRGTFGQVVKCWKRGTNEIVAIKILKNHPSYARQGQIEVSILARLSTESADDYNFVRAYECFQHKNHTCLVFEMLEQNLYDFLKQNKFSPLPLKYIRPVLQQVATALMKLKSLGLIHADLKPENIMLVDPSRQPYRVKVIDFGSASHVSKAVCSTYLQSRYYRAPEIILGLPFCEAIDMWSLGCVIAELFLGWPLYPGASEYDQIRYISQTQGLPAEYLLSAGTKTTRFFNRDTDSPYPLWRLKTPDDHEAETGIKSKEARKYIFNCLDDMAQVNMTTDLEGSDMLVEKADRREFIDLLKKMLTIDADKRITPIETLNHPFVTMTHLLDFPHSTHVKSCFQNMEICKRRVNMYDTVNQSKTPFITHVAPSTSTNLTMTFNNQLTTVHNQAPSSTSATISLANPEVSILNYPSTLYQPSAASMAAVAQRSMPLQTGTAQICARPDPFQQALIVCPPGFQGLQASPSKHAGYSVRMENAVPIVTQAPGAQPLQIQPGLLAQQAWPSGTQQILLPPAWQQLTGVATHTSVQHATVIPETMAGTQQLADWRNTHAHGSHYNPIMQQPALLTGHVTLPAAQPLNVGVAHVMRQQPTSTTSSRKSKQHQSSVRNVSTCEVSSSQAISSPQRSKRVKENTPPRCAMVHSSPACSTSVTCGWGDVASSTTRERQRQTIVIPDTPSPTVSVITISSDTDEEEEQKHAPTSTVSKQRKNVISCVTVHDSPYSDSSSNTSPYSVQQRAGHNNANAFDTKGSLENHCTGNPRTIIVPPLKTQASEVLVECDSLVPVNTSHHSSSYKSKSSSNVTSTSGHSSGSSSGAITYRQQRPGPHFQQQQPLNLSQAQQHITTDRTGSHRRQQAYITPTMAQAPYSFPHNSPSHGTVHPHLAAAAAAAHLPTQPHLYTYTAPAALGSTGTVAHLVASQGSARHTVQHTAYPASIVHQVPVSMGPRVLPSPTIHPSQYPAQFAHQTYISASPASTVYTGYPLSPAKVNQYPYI
MNK2, sequence (Q9HBH9 whole entry): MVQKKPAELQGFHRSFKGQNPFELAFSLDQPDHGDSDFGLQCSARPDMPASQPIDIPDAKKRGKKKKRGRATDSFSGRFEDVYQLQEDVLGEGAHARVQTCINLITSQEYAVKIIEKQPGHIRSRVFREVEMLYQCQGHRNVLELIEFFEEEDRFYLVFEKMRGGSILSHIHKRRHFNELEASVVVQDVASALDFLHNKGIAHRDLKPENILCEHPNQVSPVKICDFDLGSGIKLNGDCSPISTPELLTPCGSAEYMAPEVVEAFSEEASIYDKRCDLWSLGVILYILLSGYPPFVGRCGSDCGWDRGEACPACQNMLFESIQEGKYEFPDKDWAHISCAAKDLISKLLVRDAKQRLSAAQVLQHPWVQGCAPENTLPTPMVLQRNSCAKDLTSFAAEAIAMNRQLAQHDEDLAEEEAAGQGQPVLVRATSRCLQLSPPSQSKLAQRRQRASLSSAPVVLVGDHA
BTK, sequence (Q06187 whole entry): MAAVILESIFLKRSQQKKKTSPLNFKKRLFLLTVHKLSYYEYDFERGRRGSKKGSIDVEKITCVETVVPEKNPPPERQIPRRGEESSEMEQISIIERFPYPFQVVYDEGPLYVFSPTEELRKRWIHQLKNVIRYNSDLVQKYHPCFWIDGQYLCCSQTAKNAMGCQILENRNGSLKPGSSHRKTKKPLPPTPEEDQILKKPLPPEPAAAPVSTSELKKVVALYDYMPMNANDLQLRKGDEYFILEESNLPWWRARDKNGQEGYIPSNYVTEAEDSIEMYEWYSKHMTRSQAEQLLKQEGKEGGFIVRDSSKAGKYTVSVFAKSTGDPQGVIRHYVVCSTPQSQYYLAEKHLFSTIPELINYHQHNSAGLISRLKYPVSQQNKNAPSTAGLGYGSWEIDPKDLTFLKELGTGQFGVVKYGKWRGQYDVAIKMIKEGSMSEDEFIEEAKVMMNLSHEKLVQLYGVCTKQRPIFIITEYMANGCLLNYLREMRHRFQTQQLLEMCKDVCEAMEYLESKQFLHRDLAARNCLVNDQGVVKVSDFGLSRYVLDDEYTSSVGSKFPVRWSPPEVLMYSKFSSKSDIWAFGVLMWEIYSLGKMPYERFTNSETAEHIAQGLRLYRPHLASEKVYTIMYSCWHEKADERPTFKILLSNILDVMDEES
p38a MAPK, sequence (Q16539 whole entry): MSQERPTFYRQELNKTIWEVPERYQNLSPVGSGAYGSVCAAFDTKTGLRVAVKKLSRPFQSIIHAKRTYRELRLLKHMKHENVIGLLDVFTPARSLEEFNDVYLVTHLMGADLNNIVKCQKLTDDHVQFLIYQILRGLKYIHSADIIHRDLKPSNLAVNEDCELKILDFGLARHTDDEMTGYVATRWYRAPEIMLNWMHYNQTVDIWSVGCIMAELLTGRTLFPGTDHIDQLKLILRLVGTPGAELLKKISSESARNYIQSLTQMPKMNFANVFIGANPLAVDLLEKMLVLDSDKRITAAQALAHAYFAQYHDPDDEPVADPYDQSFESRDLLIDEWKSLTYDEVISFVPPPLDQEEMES
JNK3, sequence (P53779 whole entry, species assumed): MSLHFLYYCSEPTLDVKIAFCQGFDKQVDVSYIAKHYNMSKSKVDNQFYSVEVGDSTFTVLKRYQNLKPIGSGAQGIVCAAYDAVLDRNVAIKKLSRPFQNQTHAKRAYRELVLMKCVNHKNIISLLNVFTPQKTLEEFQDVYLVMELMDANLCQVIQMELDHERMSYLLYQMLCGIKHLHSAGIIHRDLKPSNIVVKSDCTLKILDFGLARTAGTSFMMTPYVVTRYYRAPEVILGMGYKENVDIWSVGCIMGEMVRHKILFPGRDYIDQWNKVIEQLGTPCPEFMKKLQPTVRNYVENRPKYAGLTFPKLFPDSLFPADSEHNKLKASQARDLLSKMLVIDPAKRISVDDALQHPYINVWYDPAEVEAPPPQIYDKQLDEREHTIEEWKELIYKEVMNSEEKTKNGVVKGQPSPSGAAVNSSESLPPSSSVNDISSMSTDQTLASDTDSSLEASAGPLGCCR

As for `COc1ccc2sc(-c3cncc(N)c3)nc2c1` [compound 1, 5-(5-Methoxybenzo[d]thiazol-2-yl)pyridin-3-amine], the “Remaining protein kinase activity” value at BTK (1 μM) is given as 101%; on BTK (100 μM), 31%; at JNK3 (1 μM) it was 125%; at JNK3 (100 μM) it was 61%; at ULK1 (1 μM), 116%; on ULK1 (100 μM) it was 77%. The “Remaining protein kinase activity” value was determined as 103% on p38a MAPK (1 μM) and 96% on p38a MAPK (100 μM). For the same compound, the remaining activity at 1 µM on HIPK2 (HIPK2, 1 μM) came out at 79%; on MNK2 (MNK2, 1 μM), 90%; at PAK6 (PAK6, 1 μM), 108%; on PKA (PKA, 1 μM), 98%; at ZAP70 (ZAP70, 1 μM), 119%. For the same compound, the remaining activity at 100 µM on HIPK2 (HIPK2, 100 μM) stood at 10%; on MNK2 (MNK2, 100 μM), 27%; at PAK6 (PAK6, 100 μM), 80%; at PKA (PKA, 100 μM), 74%; at ZAP70 (ZAP70, 100 μM) it was 63%.

On to `COc1ccc2sc(-c3cncc(NC(C)=O)c3)nc2c1` [PST-001, N-(5-(5-Methoxybenzo[d]thiazol-2-yl)pyridin-3-yl)acetamide], for which the “Remaining protein kinase activity” value at BTK (1 μM) is recorded as 92%; on BTK (100 μM), 86%; on JNK3 (1 μM), 127%; at JNK3 (100 μM), 122%; at ULK1 (1 μM), 129%; at ULK1 (100 μM), 120%. In addition, the “Remaining protein kinase activity” value was found to be 110% at p38a MAPK (1 μM) and 106% at p38a MAPK (100 μM). Also, the remaining activity at 1 µM was 90% on HIPK2; 106% on MNK2; 112% at PAK6; 88% at PKA; 123% at ZAP70. For the same compound, the remaining activity at 100 µM on HIPK2 was 77%; at MNK2, 66%; on PAK6, 113%; on PKA it was 88%; on ZAP70, 131%.

The values above are taken from PMC8617627, “Novel DYRK1A Inhibitor Rescues Learning and Memory Deficits in a Mouse Model of Down Syndrome” (Pharmaceuticals, 2021).
